Like-named read-outs stand apart in the source and are kept apart here.
System: Reuber rat hepatoma (RH) cells
Assay: Mammalian cell toxicity, resazurin assay
Assay type: cell-based
Conditions: for IC50: 5 days incubation, mean ± SD
Procedure: Mammalian cell toxicity on RH cells was measured as described in [Rufener et al. (2018)] with few alterations. Briefly, confluent (50′000 cells/well) and pre-confluent (5′000 cells/well) were seeded into 96-well plates in DMEM supplemented with 10 % FBS, penicillin (100 U/mL), streptomycin (100 μg/mL) and tetracycline (5 μg/mL) and incubated at 37 °C under a humid, 5 % CO2 atmosphere for 24 h and 5 h respectively. Alexidine, ESI-09 and MMV1581545 were added to final concentrations ranging from 120 to 0.49 μM (1:3 serial dilution) to each well and then cells were incubated at 37 °C under a humid, 5 % CO2 atmosphere for 5 days. To measure viability, the medium was removed, 180 μL of PBS was added to the cells and resazurin was added to each well to a final concentration of 10 mg/L. The cells were then allowed to process the resazurin at RT for 1 h. Fluorescence was measured on a HIDEX Sense microplate reader. Measurements were performed in triplicates and IC50 values were calculated in R using the three parameter Weibull type 1 model for three independent experiments ([Ritler et al., 2020]).

CC(C)(C)c1cc(C(=O)/C(C#N)=N/Nc2cccc(Cl)c2)no1 [ESI-09]
toxicity against mammalian cell line (in words) (RH cells counter-screen): moderate toxicity
IC50 (Rattus norvegicus, 120 h, confluent, read-out: IC50 confluent RH cells): 37.3 ± 0.73 µM
IC50 (Rattus norvegicus, 120 h, pre-confluent, read-out: IC50 pre-confluent RH cells): 9.02 ± 1.3 µM
IC50 (pre-confluent, read-out: IC50 pre-confluent RH cells): 9.03 ± 1.3 µM

From publication PMC12410356 (International Journal for Parasitology: Drugs and Drug …, 2025)
